Test results as given in publication PMC9804387, “Substrate Peptidomimetic Inhibitors of P. falciparum Plasmepsin X with Potent Antimalarial Activity” (Chemmedchem, 2022).
Structures can show the parent of a compound that is named as a salt.

Legend:
[1] = test system: P. falciparum (Pf) 3D7 parasites; assay: P. falciparum LDH viability assay; type: cell-based; conditions: for EC50: Plasmodium falciparum, 3D7, 72 h, LDH activity, 72 h at 37 °C, mean and SD of 3 independent experiments
Method: P. falciparum LDH Viability Assay. P. falciparum LDH viability assays were performed as previously described.[40] Briefly, a ten‐point 1 : 3‐fold dilution series of the compounds were pre‐dispensed in 384‐well assay plates (Grenier), and RPMI/AlbuMAX growth media inoculated with synchronized ring stage P. falciparum parasites. 10 mM compound stocks were transferred into the assay plates such that the starting concentration was 10 μM. Plates were incubated for 72 h and then frozen at −80 °C overnight. Lactate dehydrogenase (LDH) activity was quantified with APAD by measuring absorbance of NBT at 650 nm. Data were normalized to percent growth inhibition using the positive control of 0.1 % DMSO alone and the negative control of 100 nM chloroquine. Half‐maximal effective concentration (EC50) values were calculated by GraphPad Prism (8.0.2) software using a nonlinear regression four‐parameter fit analysis using a sigmoidal dose response (variable slope).

[2] = in vitro; type: cell-based; conditions: human
Method: HepG2 Cytotoxicity Assay. HepG2 cytotoxicity assays were performed as previously described.[41] Briefly, human hepatocyte HepG2 cells were cultured in DMEM supplemented with 10 % FCS at 37 °C and 5 % CO2 in a humidified incubator. Cells were seeded at 1000 cells/well in 50 μL in 384‐well plates (Grenier) and compounds incubated in ten‐point 1 : 2‐fold dilution series for 48 h. Cytotoxicity was determined using Cell Titer‐Glo (Promega), normalized to DMSO alone controls (100 % viability) and control compound Bortezomib (0 % viability at 10 μM). CC50 values were calculated by GraphPad Prism (8.0.2) software using a nonlinear regression four‐parameter fit analysis with the sigmoidal dose response (variable slope).

[3] = test system: SERA5 processing by SUB1, indicative of upstream activity by PMX; assay: SERA5 processing inhibition assay in parasites (western blot, anti-SERA5); type: cell-based, P. falciparum; conditions: 38 at 10 μM
From the text: PMX and PMIX ligand cleavage in P. falciparum parasites. It was next determined whether 38 could inhibit PMX and PMIX processing of known invasion and egress ligands in P. falciparum parasites. […] SERA5 is not a direct substrate of PMX, but is processed by SUB1 which itself is activated by PMX. The degree of downstream processing of SERA5 by SUB1 is indicative of PMX activity.
In this experiment, synchronized late trophozoite/early schizont stage parasites, expressing HA‐tagged ASP, were incubated with 38 (10 μM), the positive control WM382 (1) (2.5 nM) (a dual potent inhibitor of PMIX and PMX) and the DMSO vehicle control. Parasites from each treatment condition were then lysed and the processing of the known PMX and PMIX substrates were detected by western blot as a corollary of protease activity.
P. falciparum ASP and SERA5 Processing Inhibition Assay. P. falciparum substrate processing inhibition assays were performed as previously described.[28] Synchronized ring stage cultures were treated with test compounds 38 (10 μM) and WM382 (2.5 nM)[28] or DMSO as a vehicle control. […] HA‐tagged apical sushi protein (ASP) was detected in the merozoite fraction with anti‐HA mAb and SERA5 was detected in the supernatant fraction with an anti‐SERA5 polyclonal Ab. […]

[4] = target: T1, recombinant Pv PMV (Plasmodium vivax, UniProt A5K302); assay: PMV FRET protease assay; type: biochemical
T1 construct: made in house
T1 sequence (A5K302 35-536): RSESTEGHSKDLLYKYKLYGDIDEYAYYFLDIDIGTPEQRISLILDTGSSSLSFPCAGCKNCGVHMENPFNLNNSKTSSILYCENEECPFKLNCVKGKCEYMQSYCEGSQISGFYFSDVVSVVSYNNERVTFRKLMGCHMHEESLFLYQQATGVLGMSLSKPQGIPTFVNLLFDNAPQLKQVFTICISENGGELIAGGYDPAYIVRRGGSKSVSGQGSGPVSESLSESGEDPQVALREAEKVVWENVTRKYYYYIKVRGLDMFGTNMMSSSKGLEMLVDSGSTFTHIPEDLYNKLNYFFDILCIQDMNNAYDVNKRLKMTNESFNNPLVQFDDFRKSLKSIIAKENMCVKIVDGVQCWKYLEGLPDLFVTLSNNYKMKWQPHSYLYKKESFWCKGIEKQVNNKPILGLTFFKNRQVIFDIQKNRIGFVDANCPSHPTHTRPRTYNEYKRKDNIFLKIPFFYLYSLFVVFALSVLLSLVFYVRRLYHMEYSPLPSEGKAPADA
Method: FRET Protease Assays. FRET protease assays were performed as previously described.[19, 20, 27, 28] Briefly, ten‐point 1 : 3‐fold dilution series of the compounds were prepared in 384‐well black low volume assay plates (Greiner) using an Echo555 (Labcyte). 10 mM compound stocks were transferred into assay plates such that the starting concentration was 90 μM (Pv PMV assays), 11.25 μM (renin, cathepsin D and BACE‐1 assays) or 100 nM and 10 μM (Pf PMX and Pf PMIX assays). All wells were backfilled to 200 nL DMSO such that the DMSO concentration remained constant across the assay plates (1 % final). All compound potency assays were conducted in 20 μL total volume. For each assay, 10 μL of recombinant enzymes in respective assay buffers (Table S2) were dispensed into compound containing assay plates using a Multidrop‐Combi dispenser and allowed to incubate for 15 min. Recombinant Pf PMX, Pf PMIX and Pv PMV were expressed as previously described,[23, 27, 28] and recombinant human aspartyl proteases were purchased commercially. 10 μL of the fluorogenic peptide substrates incubated at 37 °C for the duration and conditions noted in Table S2. Samples were excited at 340 nm and fluorescence emission measured at 492 nm using an Envision fluorescence plate reader (Perkin‐Elmer). The 0 % inhibition control contained DMSO alone (1 % final) and the 100 % inhibition control was in the absence of enzyme. Half‐maximal inhibitory concentration (IC50) values were calculated by GraphPad Prism (8.0.2) software using a nonlinear regression four‐parameter fit analysis using a sigmoidal dose response (variable slope).
Table S2 . P rotease FRET assay conditions.
PMX as sa y PMIX PM V assay Renin assay Cathepsin D assay BA CE-1 assay E nzy me prot e as e 0.25 nM pro te a se 6 nM prot e as e q ua nti ty 0.1 nM pro t ea se 1.5 nM pro t ea se 2.5 nM pro t ea se 3 nM (Pro te os #R-001) ( Athe ns Re sea rc h (Sigma #S4195) […]
25mM so di um acetate, 100 mM 25 mM M E S, 25 m M 50 mM Tr is, 100 mM 100 mM so di u m 20 mM so dium Buffer acetate, 0.005% sodium chloride and Tris-HCl, 0.01% N aC l, 0. 1% Bri j-35, acetate 0.02% scetate, 0.05% […]
Sub str at e DABCYL- ( DA BC YL ) - DABCYL- DABCYL-(γ- Ab u) - E[E(EDANS)]KPIL […]

[5] = test system: PMIX; set-up: method as in PMID 29074775, PMID 32109369, PMID 23260352, PMID 29519896; conditions: Figure 1, described in literature; cited from earlier work

| SMILES | fold decrease in parasite activity compared to PMX inhibition ([1]; Pf 3D7 EC50 versus PMX IC50) [fold] | EC50 [1] [µM] | CC50 at 48 h [2] [µM] | SERA5 processing (western blot) [3] | IC50 [4] [µM] | IC50 [5] [µM] |
| --- | --- | --- | --- | --- | --- | --- |
| C[C@@H](NC[C@@H](O)[C@H](Cc1ccccc1)NC(=O)[C@H](CO)NC(=O)OCc1ccccc1)c1ccccc1 [Compd 38, Cbz‐Ser‐Phe‐HEA‐Bn(CH3)⋅TFA] | 2 | 0.09 | > 40 | complete inhibition of SERA5 processing | > 90 |  |
| C[C@@H](NC[C@@H](O)[C@H](Cc1ccccc1)NC(=O)c1ccc(C(=O)N2CCN(C)CC2)cc1)c1ccccc1 [Compd 2, reference compound] |  | 0.001 |  |  | > 90 | 0.65 |
